Measurements as given in ChEMBL document CHEMBL5291721, “A preclinical secondary pharmacology resource illuminates target-adverse drug reaction associations of marketed drugs” (Nat Commun, 2023).

Columns and labels:
[1] = target: T1, 5-hydroxytryptamine receptor 3A (Homo sapiens, UniProt P46098); type: functional
T1 sequence (P46098 whole entry): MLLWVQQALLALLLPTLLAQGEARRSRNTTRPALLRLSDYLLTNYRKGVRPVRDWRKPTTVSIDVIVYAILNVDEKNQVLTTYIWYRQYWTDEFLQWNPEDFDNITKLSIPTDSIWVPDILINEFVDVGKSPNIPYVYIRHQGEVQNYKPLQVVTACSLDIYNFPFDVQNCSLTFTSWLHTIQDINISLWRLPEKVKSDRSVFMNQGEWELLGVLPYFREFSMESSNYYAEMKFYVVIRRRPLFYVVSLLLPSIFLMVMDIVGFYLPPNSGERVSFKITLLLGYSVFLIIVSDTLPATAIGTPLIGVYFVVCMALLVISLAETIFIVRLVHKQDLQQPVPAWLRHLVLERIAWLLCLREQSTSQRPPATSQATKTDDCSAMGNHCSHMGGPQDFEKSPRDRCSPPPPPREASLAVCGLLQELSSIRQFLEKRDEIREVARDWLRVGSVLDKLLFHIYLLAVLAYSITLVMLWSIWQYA

Melanocortin receptor 3 = Melanocortin receptor 3 (Homo sapiens, UniProt P41968)
[2] = target: Gamma-aminobutyric acid receptor subunit alpha-1 (Rattus norvegicus, UniProt P62813)
[3] = target: T2, Neuropeptide Y receptor type 1 (Homo sapiens, UniProt P25929)
T2 sequence (P25929 whole entry): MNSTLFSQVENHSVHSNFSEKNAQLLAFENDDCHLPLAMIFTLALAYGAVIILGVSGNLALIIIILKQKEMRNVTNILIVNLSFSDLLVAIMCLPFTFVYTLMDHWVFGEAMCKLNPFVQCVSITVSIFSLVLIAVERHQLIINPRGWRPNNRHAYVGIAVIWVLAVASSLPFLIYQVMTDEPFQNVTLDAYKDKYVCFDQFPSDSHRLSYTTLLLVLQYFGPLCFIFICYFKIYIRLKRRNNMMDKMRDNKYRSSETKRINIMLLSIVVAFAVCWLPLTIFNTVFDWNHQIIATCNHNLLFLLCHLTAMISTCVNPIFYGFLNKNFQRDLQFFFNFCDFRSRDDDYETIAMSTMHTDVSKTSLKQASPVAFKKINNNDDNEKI

Histamine H3 receptor = Histamine H3 receptor (Homo sapiens, UniProt Q9Y5N1)
[4] = target: 5-hydroxytryptamine receptor 2B (Homo sapiens, UniProt P41595); type: functional, cell-based
[5] = target: Glutamate receptor ionotropic, NMDA 1 (Rattus norvegicus, UniProt P35439)
[6] = target: Beta-1 adrenergic receptor (Homo sapiens, UniProt P08588); type: functional
Cannabinoid receptor 1 = Cannabinoid receptor 1 (Homo sapiens, UniProt P21554); type: functional, cell-based
[7] = target: T3, Prostaglandin G/H synthase 1 (Rattus norvegicus, UniProt Q63921); type: functional
T3 sequence (Q63921 whole entry): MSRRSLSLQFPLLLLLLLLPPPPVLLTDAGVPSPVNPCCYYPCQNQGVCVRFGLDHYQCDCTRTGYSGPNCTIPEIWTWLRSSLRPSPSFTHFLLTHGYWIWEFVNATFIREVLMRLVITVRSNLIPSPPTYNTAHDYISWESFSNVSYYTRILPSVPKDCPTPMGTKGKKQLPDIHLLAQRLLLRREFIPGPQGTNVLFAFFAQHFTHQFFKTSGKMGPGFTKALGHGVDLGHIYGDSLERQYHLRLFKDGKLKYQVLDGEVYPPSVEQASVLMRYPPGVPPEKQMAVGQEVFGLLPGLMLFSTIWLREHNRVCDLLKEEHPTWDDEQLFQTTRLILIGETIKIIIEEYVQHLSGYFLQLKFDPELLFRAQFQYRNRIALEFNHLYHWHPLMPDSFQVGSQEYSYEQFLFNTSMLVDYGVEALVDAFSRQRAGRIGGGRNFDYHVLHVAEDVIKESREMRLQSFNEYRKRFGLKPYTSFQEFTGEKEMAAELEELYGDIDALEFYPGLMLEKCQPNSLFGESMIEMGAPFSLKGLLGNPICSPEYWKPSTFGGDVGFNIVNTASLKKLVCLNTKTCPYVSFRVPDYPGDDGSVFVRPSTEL

Histamine H2 receptor = Histamine H2 receptor (Homo sapiens, UniProt P25021); type: functional, cell-based
[8] = target: 5-hydroxytryptamine receptor 2A (Homo sapiens, UniProt P28223); type: functional, cell-based
[9] = target: T4, Muscarinic acetylcholine receptor M1 (Homo sapiens, UniProt P11229); type: functional
T4 sequence (P11229 whole entry): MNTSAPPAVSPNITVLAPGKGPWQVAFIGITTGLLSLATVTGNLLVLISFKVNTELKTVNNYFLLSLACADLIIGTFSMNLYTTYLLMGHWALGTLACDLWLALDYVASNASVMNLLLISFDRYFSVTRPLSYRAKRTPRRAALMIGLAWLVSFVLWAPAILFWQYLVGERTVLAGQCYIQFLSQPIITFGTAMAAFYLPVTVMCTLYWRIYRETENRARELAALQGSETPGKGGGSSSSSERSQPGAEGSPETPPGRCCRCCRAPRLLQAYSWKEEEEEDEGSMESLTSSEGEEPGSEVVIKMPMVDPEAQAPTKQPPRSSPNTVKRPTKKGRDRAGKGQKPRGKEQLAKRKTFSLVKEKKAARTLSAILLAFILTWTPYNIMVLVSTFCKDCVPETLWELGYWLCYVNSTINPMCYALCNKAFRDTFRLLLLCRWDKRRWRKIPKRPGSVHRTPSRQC

[10] = target: T5, Muscarinic acetylcholine receptor M2 (Homo sapiens, UniProt P08172); type: functional, cell-based
T5 sequence (P08172 whole entry): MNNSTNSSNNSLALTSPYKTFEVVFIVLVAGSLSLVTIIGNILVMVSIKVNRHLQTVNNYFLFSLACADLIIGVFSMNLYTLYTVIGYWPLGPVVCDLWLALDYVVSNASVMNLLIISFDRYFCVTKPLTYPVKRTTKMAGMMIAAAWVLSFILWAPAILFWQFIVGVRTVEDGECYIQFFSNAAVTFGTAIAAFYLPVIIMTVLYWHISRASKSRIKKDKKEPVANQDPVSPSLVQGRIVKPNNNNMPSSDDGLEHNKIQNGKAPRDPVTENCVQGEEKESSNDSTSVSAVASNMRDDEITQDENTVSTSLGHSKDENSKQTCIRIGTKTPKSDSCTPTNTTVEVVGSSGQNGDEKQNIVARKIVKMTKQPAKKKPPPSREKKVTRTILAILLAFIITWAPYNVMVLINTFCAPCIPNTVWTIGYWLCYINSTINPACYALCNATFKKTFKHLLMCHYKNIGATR
Note: assay procedure not described here.

Sequence of Histamine H2 receptor (P25021 whole entry): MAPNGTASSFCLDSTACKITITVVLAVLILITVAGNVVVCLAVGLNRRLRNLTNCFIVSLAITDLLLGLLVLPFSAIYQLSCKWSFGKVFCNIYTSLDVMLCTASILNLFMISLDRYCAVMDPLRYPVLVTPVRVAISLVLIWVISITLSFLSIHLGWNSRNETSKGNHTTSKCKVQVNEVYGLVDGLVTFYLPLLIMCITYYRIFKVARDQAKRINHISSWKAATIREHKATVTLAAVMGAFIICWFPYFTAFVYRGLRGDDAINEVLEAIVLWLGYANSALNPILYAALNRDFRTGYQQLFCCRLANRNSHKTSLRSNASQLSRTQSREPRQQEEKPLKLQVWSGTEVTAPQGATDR
Sequence of Gamma-aminobutyric acid receptor subunit alpha-1 (P62813 whole entry): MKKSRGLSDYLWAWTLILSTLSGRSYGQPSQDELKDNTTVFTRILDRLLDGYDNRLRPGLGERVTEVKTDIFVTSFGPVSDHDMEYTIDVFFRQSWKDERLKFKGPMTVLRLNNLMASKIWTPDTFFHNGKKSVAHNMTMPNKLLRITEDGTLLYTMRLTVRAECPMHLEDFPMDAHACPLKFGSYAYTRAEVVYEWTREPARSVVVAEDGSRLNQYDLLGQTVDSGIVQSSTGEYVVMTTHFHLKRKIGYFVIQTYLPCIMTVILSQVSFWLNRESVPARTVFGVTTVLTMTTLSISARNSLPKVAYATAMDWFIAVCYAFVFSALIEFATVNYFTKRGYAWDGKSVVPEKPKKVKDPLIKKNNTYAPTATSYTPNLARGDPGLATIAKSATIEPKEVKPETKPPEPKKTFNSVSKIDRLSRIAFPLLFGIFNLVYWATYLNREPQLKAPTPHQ
Sequence of Melanocortin receptor 3 (P41968 whole entry): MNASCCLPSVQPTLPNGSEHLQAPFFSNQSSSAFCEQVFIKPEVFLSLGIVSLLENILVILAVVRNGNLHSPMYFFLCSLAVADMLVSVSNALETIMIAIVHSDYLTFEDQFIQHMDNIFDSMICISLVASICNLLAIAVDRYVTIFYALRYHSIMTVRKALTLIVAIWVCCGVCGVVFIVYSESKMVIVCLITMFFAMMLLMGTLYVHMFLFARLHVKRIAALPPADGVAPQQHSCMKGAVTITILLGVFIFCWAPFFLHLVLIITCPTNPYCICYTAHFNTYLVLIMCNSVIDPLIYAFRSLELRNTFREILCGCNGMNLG
Sequence of Cannabinoid receptor 1 (P21554 whole entry): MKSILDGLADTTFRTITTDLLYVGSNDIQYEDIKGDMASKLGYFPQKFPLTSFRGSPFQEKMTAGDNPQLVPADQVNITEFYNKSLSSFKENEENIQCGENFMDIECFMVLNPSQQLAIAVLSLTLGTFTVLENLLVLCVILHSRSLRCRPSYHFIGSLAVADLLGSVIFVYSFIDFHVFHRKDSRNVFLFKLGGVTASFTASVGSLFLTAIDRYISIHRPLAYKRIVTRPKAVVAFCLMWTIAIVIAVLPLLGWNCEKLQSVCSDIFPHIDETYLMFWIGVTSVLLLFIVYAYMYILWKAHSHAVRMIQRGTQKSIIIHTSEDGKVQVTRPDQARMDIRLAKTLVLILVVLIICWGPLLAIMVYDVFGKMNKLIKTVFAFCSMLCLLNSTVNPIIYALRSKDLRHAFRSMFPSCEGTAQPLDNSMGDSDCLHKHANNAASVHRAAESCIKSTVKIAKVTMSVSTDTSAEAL
Sequence of Histamine H3 receptor (Q9Y5N1 whole entry): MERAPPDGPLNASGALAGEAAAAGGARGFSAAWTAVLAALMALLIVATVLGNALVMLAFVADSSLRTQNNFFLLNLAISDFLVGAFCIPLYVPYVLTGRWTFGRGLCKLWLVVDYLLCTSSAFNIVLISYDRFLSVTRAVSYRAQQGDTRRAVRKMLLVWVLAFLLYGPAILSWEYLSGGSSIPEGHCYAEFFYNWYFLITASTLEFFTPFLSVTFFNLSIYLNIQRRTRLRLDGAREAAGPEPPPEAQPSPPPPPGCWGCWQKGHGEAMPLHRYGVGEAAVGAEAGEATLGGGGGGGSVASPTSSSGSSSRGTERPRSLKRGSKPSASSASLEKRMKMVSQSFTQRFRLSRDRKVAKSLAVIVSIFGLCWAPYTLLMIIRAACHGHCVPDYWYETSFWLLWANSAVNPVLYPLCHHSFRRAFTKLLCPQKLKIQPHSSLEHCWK
Sequence of 5-hydroxytryptamine receptor 2B (P41595 whole entry): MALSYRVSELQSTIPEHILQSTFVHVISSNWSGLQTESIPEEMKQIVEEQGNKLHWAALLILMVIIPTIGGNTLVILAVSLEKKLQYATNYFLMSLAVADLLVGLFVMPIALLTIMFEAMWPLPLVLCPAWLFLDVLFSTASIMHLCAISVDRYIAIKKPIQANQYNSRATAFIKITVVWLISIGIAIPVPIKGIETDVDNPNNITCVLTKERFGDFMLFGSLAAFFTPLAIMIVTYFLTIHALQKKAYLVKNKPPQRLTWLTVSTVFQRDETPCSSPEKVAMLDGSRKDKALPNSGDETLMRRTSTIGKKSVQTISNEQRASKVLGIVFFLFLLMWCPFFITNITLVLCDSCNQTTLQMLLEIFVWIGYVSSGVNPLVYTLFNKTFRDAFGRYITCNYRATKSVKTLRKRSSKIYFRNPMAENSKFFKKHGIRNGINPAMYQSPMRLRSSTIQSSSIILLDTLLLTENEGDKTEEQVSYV
Sequence of Beta-1 adrenergic receptor (P08588 whole entry): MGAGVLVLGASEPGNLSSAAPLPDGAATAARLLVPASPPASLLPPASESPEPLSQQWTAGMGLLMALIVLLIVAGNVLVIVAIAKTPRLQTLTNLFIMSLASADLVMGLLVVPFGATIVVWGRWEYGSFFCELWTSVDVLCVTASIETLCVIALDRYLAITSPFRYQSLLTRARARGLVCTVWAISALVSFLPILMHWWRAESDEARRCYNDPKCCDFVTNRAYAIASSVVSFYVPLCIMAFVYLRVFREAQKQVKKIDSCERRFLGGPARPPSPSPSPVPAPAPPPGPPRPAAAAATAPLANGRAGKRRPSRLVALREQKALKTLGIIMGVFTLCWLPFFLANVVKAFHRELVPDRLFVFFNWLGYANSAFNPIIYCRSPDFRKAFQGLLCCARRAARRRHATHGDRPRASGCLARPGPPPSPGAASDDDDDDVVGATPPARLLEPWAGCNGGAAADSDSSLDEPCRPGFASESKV
Sequence of 5-hydroxytryptamine receptor 2A (P28223 whole entry): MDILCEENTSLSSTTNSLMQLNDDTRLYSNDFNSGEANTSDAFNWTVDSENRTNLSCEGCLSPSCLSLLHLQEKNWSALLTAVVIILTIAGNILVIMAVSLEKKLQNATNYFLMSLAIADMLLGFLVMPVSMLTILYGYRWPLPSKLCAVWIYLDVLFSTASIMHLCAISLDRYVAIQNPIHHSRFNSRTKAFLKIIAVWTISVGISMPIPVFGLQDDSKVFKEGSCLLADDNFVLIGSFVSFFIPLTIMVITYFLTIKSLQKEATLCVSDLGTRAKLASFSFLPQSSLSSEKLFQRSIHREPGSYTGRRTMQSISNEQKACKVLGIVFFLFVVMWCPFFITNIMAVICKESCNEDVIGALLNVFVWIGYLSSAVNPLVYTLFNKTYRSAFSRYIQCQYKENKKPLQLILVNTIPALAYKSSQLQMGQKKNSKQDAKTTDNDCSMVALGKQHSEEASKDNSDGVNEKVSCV

AC50 [1] [µM] | AC50 (Melanocortin receptor 3) [µM] | AC50 [3] [µM] | AC50 (Histamine H3 receptor) [µM] | AC50 [6] [µM] | Structure (SMILES) | AC50 [2] [µM] | AC50 [4] [µM] | AC50 [5] [µM] | AC50 (Cannabinoid receptor 1) [µM] | AC50 [7] [µM] | AC50 (Histamine H2 receptor) [µM] | AC50 [8] [µM] | AC50 [9] [µM] | AC50 [10] [µM]
> 30 | > 30 | > 30 | > 30 | > 30 | CC(C)(Oc1ccc(Cl)cc1)C(=O)OCCOC(=O)c1cccnc1 [ETOFIBRATE] | > 30 | > 30 | > 30 | > 30 | > 30 | > 30 | > 30 | > 30 | > 30
> 10 | 18 | 9.8 | > 10 | > 10 | COc1ccc(-c2cc(=S)ss2)cc1 [ANETHOLTRITHION] | > 30 | > 30 | > 30 | > 30 | > 30 | > 30 | > 30 | > 30 | > 30
> 30 | > 30 | > 30 | > 30 | > 30 | C[C@]12CCC(=O)C=C1[C@@H]1C[C@@H]1[C@H]1[C@@H]3[C@@H]4C[C@@H]4[C@@]4(CCC(=O)O4)[C@@]3(C)CC[C@@H]12 [DROSPIRENONE] | > 30 | 26 | > 30 |  | > 30 | > 30 | > 30 | > 30 | 13
> 30 | > 30 | > 30 | > 10 | > 10 | C[C@]12C=CC(=O)C=C1CC[C@@H]1[C@@H]2[C@@H](O)C[C@@]2(C)[C@H]1CC[C@]2(O)C(=O)CO [PREDNISOLONE] | > 10 | > 10 | > 10 | > 30 | > 30 | > 10 |  |  | > 10
> 30 | > 30 | > 30 | > 30 | > 30 | CC1(C)O[C@@H]2C[C@H]3[C@@H]4CCC5=CC(=O)C=C[C@]5(C)[C@@]4(F)[C@@H](O)C[C@]3(C)[C@]2(C(=O)CO)O1 [TRIAMCINOLONE ACETONIDE] | > 30 | > 30 | > 30 | > 30 | > 30 | > 30 |  |  | > 30
 |  |  |  |  | CN1C(C(=O)Nc2ccccn2)=C(OC(=O)/C=C/c2ccccc2)c2ccccc2S1(=O)=O [PIROXICAM CINNAMATE] |  |  |  |  | > 300 |  |  |  | 
> 30 | > 10 | > 10 | > 10 | > 10 | CCC(=O)c1ccc2c(c1)N(CC(C)N(C)C)c1ccccc1S2 (configuration not stated) [PROPIOMAZINE] | > 10 | > 10 | > 10 |  | > 10 | > 10 | > 10 | 0.12 | > 10

Structure (SMILES) | AC50 [1] [µM] | AC50 (Melanocortin receptor 3) [µM] | AC50 [3] [µM] | AC50 (Histamine H3 receptor) [µM] | AC50 [6] [µM] | AC50 [2] [µM] | AC50 [4] [µM] | AC50 [5] [µM] | AC50 (Cannabinoid receptor 1) [µM] | AC50 [7] [µM] | AC50 (Histamine H2 receptor) [µM] | AC50 [8] [µM] | AC50 [9] [µM] | AC50 [10] [µM]
Cc1cn(-c2cc(NC(=O)c3ccc(C)c(Nc4nccc(-c5cnccn5)n4)c3)cc(C(F)(F)F)c2)cn1 [RADOTINIB] |  | > 30 |  |  | > 30 |  |  |  |  | > 30 |  | > 30 | > 30 | > 30
N=C(N)NC(=O)c1nc(Cl)c(N)nc1N [AMILORIDE] | > 30 | > 30 | > 30 | > 30 | > 30 | > 30 | > 30 | > 30 |  | > 30 | > 30 |  |  | > 30
Cc1ccc(O)c([C@H](CCN(C(C)C)C(C)C)c2ccccc2)c1 [TOLTERODINE] | > 10 |  |  | > 30 | > 10 | > 30 | > 10 | > 10 | > 30 |  | > 10 |  | 0.0051 | 
COc1cccc2c1C(=O)c1c(O)c3c(c(O)c1C2=O)C[C@@](O)(C(=O)CO)C[C@@H]3O[C@H]1C[C@H](N)[C@H](O)[C@H](C)O1 [DOXORUBICIN] | > 30 | > 30 | > 30 | > 30 | > 30 | > 10 | > 10 | > 10 | > 30 | > 30 | > 10 |  |  | > 10
CC(C)(C)NCC(O)COc1ccccc1C#N (configuration not stated) [BUNITROLOL] | > 30 |  |  |  |  | > 30 | > 30 | > 30 | > 30 |  | > 30 | > 30 | > 30 | > 30
COc1ccc(C(=O)c2ccccc2)c(O)c1 [OXYBENZONE] | > 30 |  |  |  |  | > 30 | > 30 | > 30 | > 30 |  | > 30 | > 30 | > 30 | > 30
Oc1cc(Cl)ccc1Oc1ccc(Cl)cc1Cl [TRICLOSAN] |  | > 30 | > 30 | > 30 | > 30 | > 10 | > 30 | > 30 | > 30 | > 30 | > 30 | > 30 | > 30 | 
CCn1c(=O)c2c(nc(/C=C/c3ccc(OC)c(OC)c3)n2C)n(CC)c1=O [ISTRADEFYLLINE] |  | > 30 |  |  |  |  |  |  |  | > 30 |  | > 30 | > 30 | > 30
